Reference: patent US20250049033A1, “PESTICIDALLY ACTIVE PYRIDAZINONE COMPOUNDS” (SYNGENTA CROP PROTECTION AG, priority 2021, published 2025)

Experiments:
Assay type in all cases: in vivo
Tetranychus urticae = test: Activity against Tetranychus urticae (two-spotted spider mite), feeding/contact activity; conditions: foliar, 192 h
Experimental: Example B9: Activity Against Tetranychus urticae (Two-Spotted Spider Mite). Feeding/Contact Activity
Bean leaf discs on agar in 24-well microtiter plates were sprayed with aqueous test solutions prepared from 10′000 ppm DMSO stock solutions. After drying the leaf discs were infested with a mite population of mixed ages. The samples were assessed for mortality on mixed population (mobile stages) 8 days after infestation.

Myzus persicae [1] = test: Activity against Myzus persicae (green peach aphid), intrinsic activity; conditions: 120 h, test rate 12 ppm, 5 days after infestation, sucrose solution through Parafilm
Excerpt: Example B6: Activity Against Myzus persicae (Green Peach Aphid). Intrinsic Activity
Test compounds prepared from 10′000 ppm DMSO stock solutions were applied by pipette into 24-well microtiter plates and mixed with sucrose solution. The plates were closed with a stretched Parafilm. A plastic stencil with 24 holes was placed onto the plate and infested pea seedlings were placed directly on the Parafilm. The infested plate was closed with a gel blotting paper and another plastic stencil and then turned upside down. The samples were assessed for mortality 5 days after infestation.

Plutella xylostella = test: Activity against Plutella xylostella (diamond back moth), artificial diet, eggs; conditions: 192 h, application rate 200 ppm, 8 days after infestation, vs untreated, read-out: control in at least one of the two categories (mortality or growth inhibition)
Experimental: Example B7: Activity Against Plutella xylostella (Diamond Back Moth)
24-well microtiter plates with artificial diet were treated with aqueous test solutions prepared from 10′000 ppm DMSO stock solutions by pipetting. After drying, Plutella eggs were pipetted through a plastic stencil onto a gel blotting paper and the plate was closed with it. The samples were assessed for mortality and growth inhibition in comparison to untreated samples 8 days after infestation. The following compounds gave an effect of at least 80% control in at least one of the two categories (mortality or growth inhibition) at an application rate of 200 ppm: P1, P2, P3, P4, P6, P7, P8, P9, P10, P11, P12, P13, P14, P15, P16, P17, P18, P19, P20, P21, P22, P23, P24, P25, P26, P27.

Diabrotica balteata = test: Activity against Diabrotica balteata (corn root worm), maize sprouts, L2 larvae; conditions: 96 h, application rate 200 ppm, 4 days after infestation, vs untreated, read-out: control in at least one of the two categories (mortality or growth inhibition)
Experimental: Example B2: Activity Against Diabrotica balteata (Corn Root Worm)
Maize sprouts placed onto an agar layer in 24-well microtiter plates were treated with aqueous test solutions prepared from 10′000 ppm DMSO stock solutions by spraying. After drying, the plates were infested with L2 larvae (6 to 10 per well). The samples were assessed for mortality and growth inhibition in comparison to untreated samples 4 days after infestation.

Spodoptera littoralis = test: Activity against Spodoptera littoralis (Egyptian cotton leaf worm), cotton leaf discs, L1 larvae; conditions: foliar, 72 h, application rate 200 ppm, 3 days after infestation, vs untreated, read-out: control in at least one of the three categories (mortality, anti-feedant effect, or growth inhibition)
Experimental: Example B8: Activity Against Spodoptera littoralis (Egyptian Cotton Leaf Worm)
Cotton leaf discs were placed onto agar in 24-well microtiter plates and sprayed with aqueous test solutions prepared from 10′000 ppm DMSO stock solutions. After drying the leaf discs were infested with five L1 larvae. The samples were assessed for mortality, anti-feeding effect, and growth inhibition in comparison to untreated samples 3 days after infestation. Control of Spodoptera littoralis by a test sample is given when at least one of the categories mortality, anti-feedant effect, and growth inhibition is higher than the untreated sample.

Chilo suppressalis = test: Activity against Chilo suppressalis (striped rice stemborer), artificial diet, L2 larvae; conditions: 144 h, application rate 200 ppm, 6 days after infestation, vs untreated, read-out: control in at least one of the three categories (mortality, anti-feedant effect, or growth inhibition)
Experimental: Example B1: Activity Against Chilo suppressalis (Striped Rice Stemborer)
24-well microtiter plates with artificial diet were treated with aqueous test solutions prepared from 10′000 ppm DMSO stock solutions by pipetting. After drying, the plates were infested with L2 larvae (6-8 per well). The samples were assessed for mortality, anti-feeding effect, and growth inhibition in comparison to untreated samples 6 days after infestation. Control of Chilo suppressalis by a test sample is given when at least one of the categories mortality, anti-feedant effect, and growth inhibition is higher than the untreated sample.

Myzus persicae [2] = test: Activity against Myzus persicae (green peach aphid), feeding/contact activity; conditions: foliar, 144 h, application rate 200 ppm, 6 days after infestation, sunflower leaf discs, mixed ages
Experimental: Example B5: Activity Against Myzus persicae (Green Peach Aphid). Feeding/Contact Activity
Sunflower leaf discs were placed onto agar in a 24-well microtiter plate and sprayed with aqueous test solutions prepared from 10′000 ppm DMSO stock solutions. After drying, the leaf discs were infested with an aphid population of mixed ages. The samples were assessed for mortality 6 days after infestation.

Euschistus heros = test: Activity against Euschistus heros (neotropical brown stink bug), soybean leaves, N2 nymphs; conditions: 120 h, application rate 200 ppm, 5 days after infestation, vs untreated, read-out: effect in at least one of the two categories (mortality or growth inhibition)
Experimental: Example B3: Activity Against Euschistus heros (Neotropical Brown Stink Bug)
Soybean leaves on agar in 24-well microtiter plates were sprayed with aqueous test solutions prepared from 10′000 ppm DMSO stock solutions. After drying the leaves were infested with N2 nymphs. The samples were assessed for mortality and growth inhibition in comparison to untreated samples 5 days after infestation.

[3] = system: Frankliniella occidentalis; test: Activity against Frankliniella occidentalis (western flower thrips), feeding/contact activity; conditions: foliar, 168 h, application rate 200 ppm, 7 days after infestation, sunflower leaf discs, mixed ages
Experimental: Example B4: Activity Against Frankliniella occidentalis (Western Flower Thrips). Feeding/Contact Activity
Sunflower leaf discs were placed on agar in 24-well microtiter plates and sprayed with aqueous test solutions prepared from […] stock solutions. After drying the leaf discs were infested with a Frankliniella population of mixed ages. The samples were assessed for mortality 7 days after infestation.

C[C@@H](c1ncnn1-c1ccc(=O)n(C)n1)N(C)c1ncnc2c(C(F)(F)F)cc(Cl)cc12 [P6, 6-[5-[(1S)-1-[[6-chloro-8-(trifluoro-methyl)quinazolin-4-yl]-methyl-amino]ethyl]-1,2,4-triazol-1-yl]-2-methyl-pyr-idazin-3-one]
≥ 80%: mortality at 200 ppm (Tetranychus urticae) | mortality at 12 ppm (Myzus persicae [1]) | percent control (mortality or growth inhibition) at 200 ppm (Plutella xylostella) | percent control (mortality or growth inhibition) at 200 ppm (Diabrotica balteata) | percent control (mortality, anti-feedant effect or growth inhibition) at 200 ppm (Spodoptera littoralis) | percent control (mortality, anti-feedant effect or growth inhibition) at 200 ppm (Chilo suppressalis) | mortality at 200 ppm (Myzus persicae [2]) | percent effect (mortality or growth inhibition) at 200 ppm (Euschistus heros)

C[C@H](Nc1nc(=O)[nH]c2c(Cl)cc(C(F)(F)F)cc12)c1ncnn1-c1ccc(=O)n(C)n1 [P5, 8-chloro-4-[[(1S)-1-[2-(1-methyl-6-oxo-pyridazin-3-yl)-1,2,4-triazol-3-yl]ethyl]amino]-6-(trifluoromethyl)-1H-quinazolin-2-one]
≥ 80%: mortality at 200 ppm [3] | percent effect (mortality or growth inhibition) at 200 ppm (Euschistus heros)

CC(Nc1ncnc2c(C(F)(F)F)cc(Cl)cc12)c1nccnc1-c1ccc(=O)n(C)n1 (centres unmarked) [P10, 6-[3-[1-[[6-chloro-8-(trifluorometh-yl)quinazolin-4-yl]amino]ethyl]pyr-azin-2-yl]-2-methyl-pyridazin-3-one]
≥ 80%: mortality at 12 ppm (Myzus persicae [1]) | percent control (mortality or growth inhibition) at 200 ppm (Plutella xylostella) | percent control (mortality or growth inhibition) at 200 ppm (Diabrotica balteata) | percent control (mortality, anti-feedant effect or growth inhibition) at 200 ppm (Spodoptera littoralis) | percent control (mortality, anti-feedant effect or growth inhibition) at 200 ppm (Chilo suppressalis) | mortality at 200 ppm (Myzus persicae [2]) | percent effect (mortality or growth inhibition) at 200 ppm (Euschistus heros)

CC(Nc1ncnc2c(Cl)cc(C(F)(F)F)cc12)c1nccnc1-c1ccc(=O)n(C)n1 (centres unmarked) [P13, 6-[3-[1-[[8-chloro-6-(trifluoromethyl)quinazolin-4-yl]amino]ethyl]pyrazin-2-yl]-2-methyl-pyridazin-3-one]
≥ 80%: mortality at 12 ppm (Myzus persicae [1]) | percent control (mortality or growth inhibition) at 200 ppm (Plutella xylostella) | percent control (mortality or growth inhibition) at 200 ppm (Diabrotica balteata) | percent control (mortality, anti-feedant effect or growth inhibition) at 200 ppm (Spodoptera littoralis) | percent control (mortality, anti-feedant effect or growth inhibition) at 200 ppm (Chilo suppressalis) | mortality at 200 ppm (Myzus persicae [2]) | percent effect (mortality or growth inhibition) at 200 ppm (Euschistus heros)

C[C@@H](c1nccnc1-c1ccc(=O)n(C)n1)N(C)c1ncnc2c(C(F)(F)F)cc(Cl)cc12 (single isomer, unassigned) [P27]
≥ 80%: mortality at 200 ppm (Tetranychus urticae) | mortality at 12 ppm (Myzus persicae [1]) | percent control (mortality or growth inhibition) at 200 ppm (Plutella xylostella) | percent control (mortality or growth inhibition) at 200 ppm (Diabrotica balteata) | percent control (mortality, anti-feedant effect or growth inhibition) at 200 ppm (Spodoptera littoralis) | percent control (mortality, anti-feedant effect or growth inhibition) at 200 ppm (Chilo suppressalis) | mortality at 200 ppm (Myzus persicae [2]) | percent effect (mortality or growth inhibition) at 200 ppm (Euschistus heros)
